Common to all, as to format: biochemical
In one experiment the target is T1, ITK (Homo sapiens, UniProt Q08881).
T1 sequence (Q08881 1-620): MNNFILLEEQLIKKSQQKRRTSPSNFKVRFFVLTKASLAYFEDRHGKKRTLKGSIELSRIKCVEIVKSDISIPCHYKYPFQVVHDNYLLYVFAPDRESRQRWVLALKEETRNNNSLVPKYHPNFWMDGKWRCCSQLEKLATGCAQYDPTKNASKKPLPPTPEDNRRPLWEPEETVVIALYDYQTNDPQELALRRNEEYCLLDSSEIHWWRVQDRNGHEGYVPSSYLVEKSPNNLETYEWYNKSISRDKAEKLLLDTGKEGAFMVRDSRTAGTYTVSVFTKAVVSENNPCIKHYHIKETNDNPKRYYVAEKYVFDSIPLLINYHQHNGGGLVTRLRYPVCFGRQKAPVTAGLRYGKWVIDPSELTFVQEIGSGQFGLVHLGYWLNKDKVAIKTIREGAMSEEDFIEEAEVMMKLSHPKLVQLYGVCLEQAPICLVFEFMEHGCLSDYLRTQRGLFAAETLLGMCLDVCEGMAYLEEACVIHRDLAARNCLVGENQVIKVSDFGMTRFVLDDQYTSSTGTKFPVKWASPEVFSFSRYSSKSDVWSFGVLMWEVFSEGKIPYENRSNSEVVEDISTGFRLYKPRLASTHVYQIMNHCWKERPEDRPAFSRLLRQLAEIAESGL
The experiment can be described thus: Inhibition of a panel of kinases, in vitro HotSpot kinase assay: ITK. The conditions noted are these: for ITK* IC50 relative to Btk IC50 value: fold relative to Btk IC50 value; for IC50: 1 μM ATP. The protocol:
(§1) The degree of inhibition of a panel of kinases is determined using the in vitro HotSpot kinase assay (purified enzymes, ^33P-ATP, an appropriate substrate and 1 μM ATP).

The next experiment deals with LCK (Homo sapiens, UniProt P06239). The experiment can be described thus: Inhibition of a panel of kinases, in vitro HotSpot kinase assay: LCK. The conditions noted are these: for LCK* IC50 relative to Btk IC50 value: fold relative to Btk IC50 value; for IC50: 1 μM ATP, read-out: IC50 LCK.
In the next experiment the target is T2, TEC (Homo sapiens, UniProt P42680).
T2 sequence (P42680 1-631): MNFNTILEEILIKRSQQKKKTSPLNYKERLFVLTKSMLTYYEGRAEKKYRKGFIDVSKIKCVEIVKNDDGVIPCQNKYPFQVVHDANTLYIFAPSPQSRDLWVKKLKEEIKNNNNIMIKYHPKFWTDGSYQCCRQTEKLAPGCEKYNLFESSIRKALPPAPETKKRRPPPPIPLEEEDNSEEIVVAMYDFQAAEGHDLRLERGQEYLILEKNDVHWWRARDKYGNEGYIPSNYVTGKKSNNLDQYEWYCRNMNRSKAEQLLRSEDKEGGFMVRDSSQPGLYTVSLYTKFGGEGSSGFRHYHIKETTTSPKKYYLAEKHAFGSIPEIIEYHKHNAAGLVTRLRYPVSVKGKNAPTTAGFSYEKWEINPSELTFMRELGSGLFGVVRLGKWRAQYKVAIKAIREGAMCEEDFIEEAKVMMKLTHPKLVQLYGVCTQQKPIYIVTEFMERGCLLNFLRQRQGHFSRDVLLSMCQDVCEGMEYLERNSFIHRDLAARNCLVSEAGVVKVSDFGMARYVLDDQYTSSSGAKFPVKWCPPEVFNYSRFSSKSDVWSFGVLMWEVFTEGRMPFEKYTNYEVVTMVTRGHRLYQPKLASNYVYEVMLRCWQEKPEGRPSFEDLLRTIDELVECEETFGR
Description: Inhibition of a panel of kinases, in vitro HotSpot kinase assay: TEC. The conditions noted are these: for TEC* IC50 relative to Btk IC50 value: fold relative to Btk IC50 value; for IC50: 1 μM ATP. The protocol:
as §1

A further experiment addresses EGFR (Homo sapiens, UniProt P00533). Description: Inhibition of a panel of kinases, in vitro HotSpot kinase assay: EGFR. The note with it: for EGFR* IC50 relative to Btk IC50 value: fold relative to Btk IC50 value; for IC50: 1 μM ATP. As for the experimental part: as §1
The next experiment addresses T3, BTK-WT (Homo sapiens, UniProt Q06187).
T3 construct: purified from insect cells as a full-length construct containing an N-terminal 6X-His tag; His6 (N); made in house; host or cells: insect cells (baculovirus Sf21 in Method B)
Description: Btk in vitro inhibitory activity (one of Method A TR-FRET, Method B electrophoretic mobility shift, Method C radiometric filter binding).

The mark [1] stands for this setting: Table 15, C compounds, read-out: IC50 BTK-WT.
The mark [2] stands for this setting: Table 13, A compounds, read-out: IC50 BTK-WT.

Like-named read-outs stand apart in the source and are kept apart here.

T3 sequence (Q06187 whole entry): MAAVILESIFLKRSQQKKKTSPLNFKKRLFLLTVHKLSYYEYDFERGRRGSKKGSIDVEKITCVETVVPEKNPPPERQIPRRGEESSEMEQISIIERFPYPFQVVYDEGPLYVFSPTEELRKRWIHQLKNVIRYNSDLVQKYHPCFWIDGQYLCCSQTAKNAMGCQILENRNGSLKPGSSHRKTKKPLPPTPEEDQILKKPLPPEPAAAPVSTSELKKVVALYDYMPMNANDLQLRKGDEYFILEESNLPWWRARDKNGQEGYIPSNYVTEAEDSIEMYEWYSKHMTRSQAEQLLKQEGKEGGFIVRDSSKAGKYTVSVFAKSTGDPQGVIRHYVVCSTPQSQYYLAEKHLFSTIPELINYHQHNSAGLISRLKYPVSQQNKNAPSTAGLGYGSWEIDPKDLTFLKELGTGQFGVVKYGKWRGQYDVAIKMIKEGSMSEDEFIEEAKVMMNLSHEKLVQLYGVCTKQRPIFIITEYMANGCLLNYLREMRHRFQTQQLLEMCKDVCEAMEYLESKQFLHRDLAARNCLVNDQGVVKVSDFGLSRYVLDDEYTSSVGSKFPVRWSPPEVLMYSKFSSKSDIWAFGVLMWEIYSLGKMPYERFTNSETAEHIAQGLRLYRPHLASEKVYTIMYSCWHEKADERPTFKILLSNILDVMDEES
Sequence of EGFR (P00533 25-1210): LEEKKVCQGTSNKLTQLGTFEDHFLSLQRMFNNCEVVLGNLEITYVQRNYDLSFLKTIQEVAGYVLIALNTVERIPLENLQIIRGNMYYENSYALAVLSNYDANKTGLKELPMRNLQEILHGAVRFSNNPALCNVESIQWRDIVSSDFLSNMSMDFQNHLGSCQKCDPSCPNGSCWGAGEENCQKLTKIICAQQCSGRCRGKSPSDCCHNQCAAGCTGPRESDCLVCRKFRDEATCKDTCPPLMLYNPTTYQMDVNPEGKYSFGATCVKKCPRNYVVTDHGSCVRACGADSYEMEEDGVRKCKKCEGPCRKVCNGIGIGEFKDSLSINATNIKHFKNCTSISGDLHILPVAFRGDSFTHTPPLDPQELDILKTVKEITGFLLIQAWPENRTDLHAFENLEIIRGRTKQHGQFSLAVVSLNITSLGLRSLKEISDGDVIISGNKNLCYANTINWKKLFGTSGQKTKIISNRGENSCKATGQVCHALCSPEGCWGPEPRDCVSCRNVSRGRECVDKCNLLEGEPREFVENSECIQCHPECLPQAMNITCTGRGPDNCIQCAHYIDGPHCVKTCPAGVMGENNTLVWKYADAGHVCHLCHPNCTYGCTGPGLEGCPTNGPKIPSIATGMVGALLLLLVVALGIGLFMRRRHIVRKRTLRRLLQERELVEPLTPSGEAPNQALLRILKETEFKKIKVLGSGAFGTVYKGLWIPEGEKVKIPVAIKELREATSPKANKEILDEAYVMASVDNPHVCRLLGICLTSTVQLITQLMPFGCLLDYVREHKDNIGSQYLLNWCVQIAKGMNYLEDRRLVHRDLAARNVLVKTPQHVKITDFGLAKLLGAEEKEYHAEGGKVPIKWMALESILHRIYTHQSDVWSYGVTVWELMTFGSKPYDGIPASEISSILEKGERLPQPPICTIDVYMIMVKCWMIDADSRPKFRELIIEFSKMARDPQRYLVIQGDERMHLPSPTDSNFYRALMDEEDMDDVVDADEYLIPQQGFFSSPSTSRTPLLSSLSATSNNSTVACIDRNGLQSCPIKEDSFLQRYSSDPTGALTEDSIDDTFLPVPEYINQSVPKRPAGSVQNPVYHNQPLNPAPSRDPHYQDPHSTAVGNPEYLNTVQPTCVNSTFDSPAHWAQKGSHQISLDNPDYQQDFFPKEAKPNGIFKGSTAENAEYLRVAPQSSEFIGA
Sequence of LCK (P06239 whole entry): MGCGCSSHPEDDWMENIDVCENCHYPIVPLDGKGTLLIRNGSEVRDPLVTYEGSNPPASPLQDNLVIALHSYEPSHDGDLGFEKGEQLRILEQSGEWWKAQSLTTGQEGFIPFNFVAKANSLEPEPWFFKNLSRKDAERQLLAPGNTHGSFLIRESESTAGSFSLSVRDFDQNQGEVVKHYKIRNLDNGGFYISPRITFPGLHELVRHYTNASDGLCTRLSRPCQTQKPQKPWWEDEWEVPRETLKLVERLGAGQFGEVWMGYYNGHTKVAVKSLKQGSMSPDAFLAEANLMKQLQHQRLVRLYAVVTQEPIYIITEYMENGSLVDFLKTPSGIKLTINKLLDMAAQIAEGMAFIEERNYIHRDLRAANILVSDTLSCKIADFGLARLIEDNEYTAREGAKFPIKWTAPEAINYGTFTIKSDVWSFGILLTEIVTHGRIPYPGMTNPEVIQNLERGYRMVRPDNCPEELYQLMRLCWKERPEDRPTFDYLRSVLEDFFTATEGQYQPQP

The term IC50 denotes the point on the concentration scale where inhibition reaches its midpoint. Take `C[C@@H]1[C@H](NC(=O)c2ccc(C3CC3)cc2)CCCN1c1cnc(C(N)=O)c(Nc2cnn(C(F)F)c2)n1` [Example A-198, 5-[(2R,3R)-3-(4-cyclopropylbenzamido)-2-methylpiperidin-1-yl]-3-{[1-(difluoromethyl)-1H-pyrazol-4-yl]amino}pyrazine-2-carboxamide]: the “ITK* IC50 relative to Btk IC50 value” at ITK is 133x. Further, the “LCK* IC50 relative to Btk IC50 value” on LCK amounted to 112x. Also, on TEC, the “TEC* IC50 relative to Btk IC50 value” worked out at 3x. Moreover, on EGFR, the “EGFR* IC50 relative to Btk IC50 value” is on record as 1276x. The IC50 on BTK-WT (read-out: BTK-WT IC50) is < 0.01 µM.

`C=CC(=O)N1CCC[C@@H](N(C)c2cnc(C(N)=O)c(Nc3ccc(C4(C)CCN(C5CCCC5)CC4)cc3)n2)C1` [Example C-44, (R)-5-((1-acryloylpiperidin-3-yl)(methyl)amino)-3-(4-(1-cyclopentyl-4-methylpiperidin-4-yl)phenylamino) pyrazine-2-carboxamide]: the IC50 on ITK (Table 15, C compounds) was ≤ 0.01 µM; at LCK (Table 15, C compounds) it was < 0.01 µM; on TEC (Table 15, C compounds), ≤ 0.01 µM; at EGFR (Table 15, C compounds) it was ≤ 0.01 µM; on BTK-WT (setting [1]) it was ≤ 0.01 µM.

`C[C@@H]1[C@H](NC(=O)c2cc3c(n2C)CC(C)(C)C3)CCCN1c1cnc(C(N)=O)c(Nc2cnn(C)c2)n1` [Example A-193, N-((2R,3R)-1-(5-carbamoyl-6-(1-methyl-1H-pyrazol-4-ylamino)pyrazin-2-yl)-2-methylpiperidin-3-yl)-1,5,5-trimethyl-1,4,5,6-tetrahydrocyclo-penta[b]pyrrole-2-carboxamide]: the half-inhibitory concentration (IC50) against ITK (Table 13, A compounds) was 0.1 to 1 µM; on LCK (Table 13, A compounds) it was 0.1 to 1 µM; against TEC (Table 13, A compounds) it was 0.01 to 0.1 µM; at EGFR (Table 13, A compounds), 0.1 to 1 µM; on BTK-WT (setting [2]), ≤ 0.01 µM.

On to `C[C@@H]1[C@H](NC(=O)c2ccc(C3CC3)cc2)CCCN1c1nnc(C(N)=O)c(Nc2cnn(C)c2)n1` [Example A-201, 3-[(2R,3R)-3-(4-cyclopropylbenzamido)-2-methylpiperidin-1-yl]-5-[(1-methyl-1H-pyrazol-4-yl)amino]-1,2,4-triazine-6-carboxamide], for which, on ITK, the “ITK* IC50 relative to Btk IC50 value” came out at 234x. Besides, the “LCK* IC50 relative to Btk IC50 value” at LCK is 49x. For the same molecule, the “TEC* IC50 relative to Btk IC50 value” on TEC is 8x. Moreover, the “EGFR* IC50 relative to Btk IC50 value” at EGFR was 2962x. Besides, the IC50 on BTK-WT (read-out: BTK-WT IC50) was < 0.01 µM.

In the case of `Cn1cc(Nc2nc(N3CCC[C@@H](NC(=O)c4ccc(C5CC5)cc4)C3)nnc2C(N)=O)cn1` [Example A-202, 3-[(3R)-3-(4-cyclopropylbenzamido)piper-idin-1-yl]-5-[(1-methyl-1H-pyrazol-4-yl)amino]-1,2,4-triazine-6-carboxamide], at ITK, the “ITK* IC50 relative to Btk IC50 value” is 360x. In addition, on LCK, the “LCK* IC50 relative to Btk IC50 value” came to 107x. For the same molecule, the “TEC* IC50 relative to Btk IC50 value” on TEC was determined as 5x. Further, the “EGFR* IC50 relative to Btk IC50 value” at EGFR was 5208x. The IC50 on BTK-WT (read-out: BTK-WT IC50) was < 0.01 µM.

For the molecule `C=CC(=O)N1CCC[C@@H](N(C)c2cnc(C(N)=O)c(Nc3ccc(C(C)C)cc3)n2)C1` [Example C-42, (R)-5-((1-acryloylpiperidin-3-yl)(methyl)amino)-3-(4-isopropylphenylamino) pyrazine-2-carboxamide], the IC50 was 0.01 to 0.1 µM on ITK (Table 15, C compounds); 1 to 10 µM on LCK (Table 15, C compounds); ≤ 0.01 µM on TEC (Table 15, C compounds); ≤ 0.01 µM on BTK-WT (setting [1]).

Regarding `CN1CCN(c2ccc(Nc3nc(N4CCC[C@@H](n5ccc6cc(C7CC7)ccc6c5=O)C4)cnc3C(N)=O)cc2)CC1` [Example A-99, 5-[(3R)-3-(6-cyclo-propyl-1-oxo-1,2-dihydroisoquinolin-2-yl)piperidin-1-yl]-3-{[4-(4-methylpiperazin-1-yl)phenyl]amino}pyrazine-2-carboxamide], the IC50 against ITK (Table 13, A compounds) is 0.1 to 1 µM; at LCK (Table 13, A compounds) it was 0.1 to 1 µM; on TEC (Table 13, A compounds) it was 0.01 to 0.1 µM; at EGFR (Table 13, A compounds), > 10 µM; at BTK-WT (setting [2]), ≤ 0.01 µM.

For `Cc1nn(C)cc1Nc1nc(N2CCC[C@@H](NC(=O)c3ccc(C4CC4)cc3)[C@H]2C)cnc1C(N)=O` [Example A-192, 5-((2R,3R)-3-(4-cyclopropylbenzamido)-2-methylpiperidin-1-yl)-3-(1,3-dimethyl-1H-pyrazol-4-ylamino)pyrazine-2-carboxamide], the IC50 on ITK (Table 13, A compounds) was > 10 µM; at LCK (Table 13, A compounds), > 10 µM; against TEC (Table 13, A compounds) it was 1 to 10 µM; against EGFR (Table 13, A compounds), 1 to 10 µM; on BTK-WT (setting [2]), 0.01 to 0.1 µM.

For the molecule `Cc1c(Nc2nc(N3CCC[C@@H](NC(=O)c4ccc(C5CC5)cc4)[C@H]3C)cnc2C(N)=O)cnn1C` [Example A-191, 5-((2R,3)R-3-(4-cyclopropylbenzamido)-2-methylpiperidin-1-yl)-3-(1,5-dimethyl-1H-pyrazol-4-ylamino)pyrazine-2-carboxamide], the IC50 against ITK (Table 13, A compounds) was > 10 µM; at LCK (Table 13, A compounds), 1 to 10 µM; against TEC (Table 13, A compounds) it was 1 to 10 µM; at EGFR (Table 13, A compounds), 1 to 10 µM; at BTK-WT (setting [2]), 0.01 to 0.1 µM.

For the molecule `C[C@@H]1[C@H](NC(=O)N(C)C)CCCN1c1cnc(C(N)=O)c(Nc2ccc(N3CCN(C)CC3)cc2)n1` [Example A-100, 5-[(2R,3R)-3-[(dimethylcarbamoyl)amino]-2-methylpiperidin-1-yl]-3-{[4-(4-methylpiperazin-1-yl)phenyl]amino}pyrazine-2-carboxamide], the concentration for half-maximal inhibition (IC50) against ITK (Table 13, A compounds) is 0.1 to 1 µM; at LCK (Table 13, A compounds), 0.1 to 1 µM; against TEC (Table 13, A compounds), 0.1 to 1 µM; against EGFR (Table 13, A compounds), 0.1 to 1 µM; at BTK-WT (setting [2]) it was ≤ 0.01 µM.

Consider `C=CC(=O)N1CC[C@@H](N(C)c2nnc(C(N)=O)c(Nc3ccc(C(C)C)cc3)n2)C1` [Example C-41, (R)-3-((1-acryloylpyrrolidin-3-yl)(methyl)amino)-5-(4-isopropylphenylamino)-1,2,4-triazine-6-carboxamide], for which the IC50 against ITK (Table 15, C compounds) was ≤ 0.01 µM; at LCK (Table 15, C compounds), 1 to 10 µM; against TEC (Table 15, C compounds), ≤ 0.01 µM; at EGFR (Table 15, C compounds), ≤ 0.01 µM; on BTK-WT (setting [1]), ≤ 0.01 µM.

`C=CC(=O)N1CCC[C@@H](Nc2cnc(C(N)=O)c(Nc3ccc(C4CCN(C5CCCC5)CC4)cc3)n2)C1` [Example C-84, (R)-5-(1-acryloylpiperidin-3-ylamino)-3-(4-(1-cyclopentylpiperidin-4-yl)phenylamino)pyrazine-2-carboxamide]: the IC50 was ≤ 0.01 µM against ITK (Table 15, C compounds); 0.01 to 0.1 µM at LCK (Table 15, C compounds); ≤ 0.01 µM against TEC (Table 15, C compounds); ≤ 0.01 µM on EGFR (Table 15, C compounds); ≤ 0.01 µM at BTK-WT (setting [1]).

In the case of `C=CC(=O)N1CCC[C@@H](Nc2nnc(C(N)=O)c(Nc3ccc(C(C)(C)C)cc3)n2)C1` [Example C-40, (R)-3-(1-acryloylpiperidin-3-ylamino)-5-(4-tert-butylphenylamino)-1,2,4-triazine-6-carboxamide], the IC50 on ITK (Table 15, C compounds) is ≤ 0.01 µM; at LCK (Table 15, C compounds), 0.1 to 1 µM; against TEC (Table 15, C compounds) it was ≤ 0.01 µM; on EGFR (Table 15, C compounds) it was ≤ 0.01 µM; at BTK-WT (setting [1]), ≤ 0.01 µM.

For the molecule `C[C@@H]1[C@H](NC(=O)c2ccc(C(C)(C)O)cc2)CCCN1c1cnc(C(N)=O)c(Nc2cnn(C)c2)n1` [Example A-200, 5-((2R,3R)-3-(4-(2-hydroxypropan-2-yl)benzamido)-2-methyl-piperidin-1-yl)-3-(1-methyl-1H-pyrazol-4-yl-amino)pyrazine-2-carboxamide], the “ITK* IC50 relative to Btk IC50 value” on ITK stood at 99x. For the same molecule, on LCK, the “LCK* IC50 relative to Btk IC50 value” amounted to 88x. The “TEC* IC50 relative to Btk IC50 value” at TEC is recorded as 3x. For the same molecule, the “EGFR* IC50 relative to Btk IC50 value” at EGFR is given as 380x. Moreover, at BTK-WT (read-out: BTK-WT IC50), the IC50 was < 0.01 µM.

These data come from US20210070748A1, “INHIBITORS OF BRUTONS TYROSINE KINASE” (Pharmacyclics LLC, priority 2015, published 2021).
